Data as given in patent publication US10259810B2, “N-sulfonylated pyrazolo[3,4-b]pyridin-6-carboxamides and method of use” (AbbVie S.à.r.l., priority 2015, dated 2019).

How the values were obtained:
Assay type in all cases: cell-based
ΔF508-CFTR [1] = target: T1, ΔF508-CFTR (Homo sapiens, UniProt P13569, DEL508-508); assay: CFTR cell surface levels using HRP-tagged ΔF508-CFTR expressing CFBE cells, in the presence of a co-corrector; details: HRP-tagged ΔF508-CFTR CFBE cells, in the presence of 3 μM co-corrector; for EC50: read-out: EC50
T1 construct: host or cells: CFBE41o-, doxycycline-inducible
Outline: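 Chemiluminescent read-out of surface HRP (15 min, dark) after PBS washes. Activity is normalized as 100×(sample−DMSO)/(3 μM co-corrector alone−DMSO).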

ΔF508-CFTR [2] = target: T1, ΔF508-CFTR; assay: CFTR cell surface levels using HRP-tagged ΔF508-CFTR expressing CFBE cells, intrinsic corrector capacity; parameters: % Activation: concentration or dose not given beside the values; details: HRP-tagged ΔF508-CFTR expressing CFBE41o- cells, compound alone (intrinsic corrector capacity), 20 hours at 33° C.; for EC50: read-out: EC50
Outline: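 Read-out: chemiluminescent HRP activity of ECL4-HRP-tagged ΔF508-CFTR at the cell surface, 15 min substrate in dark. Normalized as 100×(sample−DMSO)/(positive control−DMSO).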

CFTR ΔF508 = target: T2, CFTR ΔF508 (Homo sapiens, UniProt P13569, DEL508-508); assay: Chronic TECC assay, primary bronchial epithelial cells of CF patients homozygous for CFTR ΔF508 (corrector, co-corrector and potentiator); details: chronic TECC, AUC = full area under the curve upon forskolin stimulation; for % Activity at 1 μM (AUC**): test compound at 1 μM; for EC50: read-out: EC50 (nM) (AUC**)
T2 construct: bronchial epithelial cells isolated from CF patients homozygous for the CFTR ΔF508 mutation; McGill University; Asterand; University of North Carolina hAEC-CF; host or cells: primary human bronchial epithelial cells from CF patients homozygous for ΔF508, differentiated at air-liquid interface
Outline: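 Primary bronchial epithelial cells from ΔF508-homozygous CF patients on collagen IV-coated Transwells were chronically treated with test compound plus corrector and potentiator, which were re-added before recording. Ieq was derived from PD and Rt in NaCl-Ringer, pH 7.4, at 37° C, with apical amiloride and bilateral forskolin, recorded every 2 min over 20 min. Ieq increase was normalized to controls, and EC50 was taken from per-well concentrations.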

T2 sequence (P13569 with tags, fused parts or gaps DEL508-508): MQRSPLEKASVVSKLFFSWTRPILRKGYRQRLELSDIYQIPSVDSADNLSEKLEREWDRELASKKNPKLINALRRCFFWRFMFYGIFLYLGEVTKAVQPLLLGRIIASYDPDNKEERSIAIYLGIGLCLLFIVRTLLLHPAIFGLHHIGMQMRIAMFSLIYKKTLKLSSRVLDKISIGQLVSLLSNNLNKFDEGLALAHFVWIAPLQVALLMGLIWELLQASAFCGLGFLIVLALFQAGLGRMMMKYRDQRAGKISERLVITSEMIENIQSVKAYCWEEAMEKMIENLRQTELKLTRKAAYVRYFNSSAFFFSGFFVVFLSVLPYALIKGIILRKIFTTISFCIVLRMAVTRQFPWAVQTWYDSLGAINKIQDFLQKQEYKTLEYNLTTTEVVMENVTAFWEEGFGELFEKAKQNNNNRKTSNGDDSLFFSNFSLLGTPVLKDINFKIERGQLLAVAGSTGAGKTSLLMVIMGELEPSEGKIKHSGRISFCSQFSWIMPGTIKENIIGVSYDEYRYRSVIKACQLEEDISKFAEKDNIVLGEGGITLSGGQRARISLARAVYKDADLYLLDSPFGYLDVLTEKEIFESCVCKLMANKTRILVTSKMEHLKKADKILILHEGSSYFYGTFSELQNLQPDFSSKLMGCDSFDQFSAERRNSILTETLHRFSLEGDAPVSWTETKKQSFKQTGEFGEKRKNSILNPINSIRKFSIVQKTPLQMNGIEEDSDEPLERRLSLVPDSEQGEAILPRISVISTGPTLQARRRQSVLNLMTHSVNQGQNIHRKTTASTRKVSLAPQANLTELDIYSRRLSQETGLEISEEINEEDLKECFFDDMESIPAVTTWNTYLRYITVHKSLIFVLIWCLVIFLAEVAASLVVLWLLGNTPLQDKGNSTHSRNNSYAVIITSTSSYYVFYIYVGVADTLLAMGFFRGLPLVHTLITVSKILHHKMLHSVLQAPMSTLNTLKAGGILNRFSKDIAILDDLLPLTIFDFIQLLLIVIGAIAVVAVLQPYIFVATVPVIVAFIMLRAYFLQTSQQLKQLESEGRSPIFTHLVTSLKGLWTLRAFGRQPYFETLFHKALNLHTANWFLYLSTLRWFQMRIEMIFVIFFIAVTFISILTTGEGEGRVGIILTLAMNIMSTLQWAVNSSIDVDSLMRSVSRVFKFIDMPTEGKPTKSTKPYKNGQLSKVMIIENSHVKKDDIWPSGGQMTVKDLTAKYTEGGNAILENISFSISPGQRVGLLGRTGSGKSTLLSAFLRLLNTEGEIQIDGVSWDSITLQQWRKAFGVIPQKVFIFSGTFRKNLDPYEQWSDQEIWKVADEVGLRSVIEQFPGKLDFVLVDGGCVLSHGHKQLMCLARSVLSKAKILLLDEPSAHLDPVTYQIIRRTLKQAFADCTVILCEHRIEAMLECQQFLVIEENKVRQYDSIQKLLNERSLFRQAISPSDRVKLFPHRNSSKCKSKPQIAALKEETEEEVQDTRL
T1 sequence (P13569 with tags, fused parts or gaps DEL508-508): as above

Row | Compound | % Activation (ΔF508-CFTR [1]) | EC50 (ΔF508-CFTR [1]) | % Activation (ΔF508-CFTR [2]) | EC50 (ΔF508-CFTR [2]) | % Activity at 1 μM (AUC**) (CFTR ΔF508) | EC50 (CFTR ΔF508)
1 | COCC1CCN(c2cc(C(=O)NS(=O)(=O)CCCN3CCOCC3)nc3c2c(C(C)C)nn3-c2ccc(F)cc2)CC1 [Compound 272, 1-(4-fluorophenyl)-4-[4-(methoxymethyl)piperidin-1-yl]-N-[3-(morpholin-4-yl)propane-1-sulfonyl]-3-(propan-2-yl)-1H-pyrazolo[3,4-b]pyridine-6-carboxamide] | 451.2% | 43.3 nM | 268.2% | 96.5 nM | 285.35% | 
2 | COCC1CCN(c2cc(C(=O)NS(=O)(=O)CCN(C)C)nc3c2c(C2CCC2)nn3-c2ccccc2)CC1 [Compound 273, 3-cyclobutyl-N-[2-(dimethylamino)ethanesulfonyl]-4-[4-(methoxymethyl)piperidin-1-yl]-1-phenyl-1H-pyrazolo[3,4-b]pyridine-6-carboxamide] | 344.05% | 111 nM | 182.4% | 562 nM | 197.06% | 
3 | CC(=O)N1CCC(F)(COc2cc(C(=O)NS(C)(=O)=O)nc3c2c(C2CCC2)nn3-c2ccccc2)CC1 [Compound 274, 4-[(1-acetyl-4-fluoropiperidin-4-yl)methoxy]-3-cyclobutyl-N-(methanesulfonyl)-1-phenyl-1H-pyrazolo[3,4-b]pyridine-6-carboxamide] | 300% | 398 nM | 159.05% | 842 nM | 224.99% | > 300 nM
4 | COCC1CCN(c2cc(C(=O)NS(C)(=O)=O)nc3c2c(C(C)C)nn3-c2ccnc(N3CCOCC3)n2)CC1 [Compound 279, N-(methanesulfonyl)-4-[4-(methoxymethyl)piperidin-1-yl]-1-[2-(morpholin-4-yl)pyrimidin-4-yl]-3-(propan-2-yl)-1H-pyrazolo[3,4-b]pyridine-6-carboxamide] | 530.6% | 227 nM | 308.4% | 534 nM |  | 109 nM
5 | COCC1CCN(c2cc(C(=O)NS(=O)(=O)CCCN3CCCC3)nc3c2c(C(C)C)nn3-c2ccc(F)cc2)CC1 [Compound 291, 1-(4-fluorophenyl)-4-[4-(methoxymethyl)piperidin-1-yl]-3-(propan-2-yl)-N-[3-(pyrrolidin-1-yl)propane-1-sulfonyl]-1H-pyrazolo[3,4-b]pyridine-6-carboxamide] | 420.07% | 591 nM | 219.5% | 3330 nM | 255.92% | 
6 | COC(C)(C)C1CCN(c2cc(C(=O)NS(C)(=O)=O)nc3c2c(C2CCC2)nn3-c2ccccc2)CC1 [Compound 294, 3-cyclobutyl-N-(methanesulfonyl)-4-[4-(2-methoxypropan-2-yl)piperidin-1-yl]-1-phenyl-1H-pyrazolo[3,4-b]pyridine-6-carboxamide] | 548.45% | 22.1 nM | 319.6% | 62.2 nM |  | 21 nM
7 | COC(=O)N1CCC(COc2cc(C(=O)NS(C)(=O)=O)nc3c2c(C2CCC2)nn3-c2ccccc2)CC1 [Compound 297, methyl 4-[({3-cyclobutyl-6-[(methanesulfonyl)carbamoyl]-1-phenyl-1H-pyrazolo[3,4-b]pyridin-4-yl}oxy)methyl]piperidine-1-carboxylate] | 423.43% | 77.2 nM | 193.9% | 99.2 nM | 470.97% | ≤ 30 nM
8 | CC(C)c1nn(-c2ccc(F)cc2)c2nc(C(=O)NS(C)(=O)=O)cc(N3CCC(C(C)(C)O)CC3)c12 [Compound 304, 1-(4-fluorophenyl)-4-[4-(2-hydroxypropan-2-yl)piperidin-1-yl]-N-(methanesulfonyl)-3-(propan-2-yl)-1H-pyrazolo[3,4-b]pyridine-6-carboxamide] | 507% | 56.1 nM | 308.2% | 203 nM | 194.54% | 
9 | COCC1CCN(c2cc(C(=O)NS(C)(=O)=O)nc3c2c(C2CCC2)nn3-c2ccc(F)cc2)CC1 [Compound 316, 3-cyclobutyl-1-(4-fluorophenyl)-N-(methanesulfonyl)-4-[4-(methoxymethyl)piperidin-1-yl]-1H-pyrazolo[3,4-b]pyridine-6-carboxamide] | 555.55% | 24.4 nM | 380.5% | 183 nM | 452.88% | 45 nM
10 | CC(C)(O)C1CCN(c2cc(C(=O)NS(C)(=O)=O)nc3c2c(C2CCC2)nn3-c2ccccc2)CC1 [Compound 317, 3-cyclobutyl-4-[4-(2-hydroxypropan-2-yl)piperidin-1-yl]-N-(methanesulfonyl)-1-phenyl-1H-pyrazolo[3,4-b]pyridine-6-carboxamide] | 450.35% | 48.8 nM | 269.6% | 93.5 nM | 311.08% | 24 nM
11 | CS(=O)(=O)NC(=O)c1cc(OCC2CCOCC2)c2c(C3CCC3)nn(-c3ccc(F)cc3)c2n1 [Compound 318, 3-cyclobutyl-1-(4-fluorophenyl)-N-(methanesulfonyl)-4-[(oxan-4-yl)methoxy]-1H-pyrazolo[3,4-b]pyridine-6-carboxamide] | 359.5% | 184 nM | 183.45% | 411 nM | 439.94% | 
12 | CC(C)c1nn(-c2ccc(F)cc2)c2nc(C(=O)NS(C)(=O)=O)cc(N3CCC(C4CCN(C)CC4)CC3)c12 [Compound 320, 1-(4-fluorophenyl)-N-(methanesulfonyl)-4-(1'-methyl[4,4'-bipiperidin]-1-yl)-3-(propan-2-yl)-1H-pyrazolo[3,4-b]pyridine-6-carboxamide] | 590.6% | 82.7 nM | 376.35% | 309 nM | 215.3% | 
13 | COC(=O)N1CCC(COc2cc(C(=O)NS(C)(=O)=O)nc3c2c(C(C)C)nn3-c2ccc(F)cc2)CC1 [Compound 322, methyl 4-({[1-(4-fluorophenyl)-6-[(methanesulfonyl)carbamoyl]-3-(propan-2-yl)-1H-pyrazolo[3,4-b]pyridin-4-yl]oxy}methyl)piperidine-1-carboxylate] | 342.75% | 61.4 nM | 158.25% | 128 nM | 440.86% | 
14 | CN1CCCCC1CCOc1cc(C(=O)NS(C)(=O)=O)nc2c1c(C1CCC1)nn2-c1ccccc1 (stereo not shown) [Compound 323, 3-cyclobutyl-N-(methanesulfonyl)-4-[2-(1-methylpiperidin-2-yl)ethoxy]-1-phenyl-1H-pyrazolo[3,4-b]pyridine-6-carboxamide] | 292.85% | 372 nM | 144.6% | 1370 nM | 217.91% | 
15 | CC(C)N(CCOc1cc(C(=O)NS(C)(=O)=O)nc2c1c(C1CCC1)nn2-c1ccccc1)C1COC1 [Compound 325, 3-cyclobutyl-N-(methanesulfonyl)-4-{2-[(oxetan-3-yl)(propan-2-yl)amino]ethoxy}-1-phenyl-1H-pyrazolo[3,4-b]pyridine-6-carboxamide] | 309.8% | 153 nM | 151.4% | 335 nM | 317.57% | 
